In patent publication US20100298285A1, “Biclycloheteroaryl Compounds as P2x7 Modulators and Uses Thereof” (priority 2006, published 2010):

System: IL-1β release, THP-1 cells
Experiment: IL-1β release assay in differentiated THP-1 cells stimulated with BzATP (Example 9)
Format: cell-based
Details: Homo sapiens; for inhibition at 0.3 µM: 0.3 μM compound ("+" symbols); for inhibition at 0.3 µM / inhibition at 0.1 µM: differentiated THP-1 cells, 250 uM BzATP, read-out: IL-1β% Inhib. @ 0.3 or 0.1 μM; for IC50: THP-1 cells, BzATP 250 uM, four parameter logistic fit; for inhibition at 0.1 µM: 0.1 μM compound ("*" symbols)
Method: THP-1 cells (ATCC Cat # 285-IF-100) are plated in 96 well plates at a concentration of 200,000 cells per well and allowed to differentiate in RPMI-1640 media (ATCC Cat # 30-2001) containing 10% FBS, 100 IU/mL penicillin, 100 ug/mL streptomycin, 100 ng/mL LPS and 100 ng/mL IFN-γ for 16 hours. Following differentiation, the cells are treated for an additional 2 hours in RPMI-1640 media containing 100 IU/mL penicillin, 100 ug/mL streptomycin and fresh LPS at 100 ng/mL. The cells are then pretreated for 30 minutes with the compound of interest at the appropriate concentration in RPMI media containing 100 IU/mL penicillin, 100 ug/mL streptomycin. Following the pretreatment 2′,3′-O-(4-benzoylbenzoyl)-adenosine 5′-triphosphate (Sigma Aldrich Cat # B6396) is added to a final concentration of 250 uM and the cells are incubated for an additional 45 minutes. 30 uL of cell supernatant is then collected and IL-1β levels determined via ELISA (R&D systems Cat. # HSLB50) according to manufacturer's recommendations using the Tecan Safire plate reader. Background adjusted IL-1β levels of drug treated and non-treated cells are used to calculate the percent inhibition.
The following compounds have been or can be prepared according to the synthetic methods described above. For the purpose of Table 1 below, activity of each compound, which can be determined using the IL-1β assay method described in Example 9, is expressed as follows: […]
The compounds set forth in Table 1 were tested for activity in a cellular model as described herein. Specifically, cells were pretreated with differing amounts of the compound under test and released IL-1β determined as in Example 9, above. Measurements were made and IC50 values, presented in Table 2, below, were determined by fitting the data to a four parameter logistic equation using GraphPad Prism software (GraphPad Software, Inc). The equation may be expressed by the following formula:
Y=Bottom+(Top−Bottom)/(1+10̂((Log EC50−X)*HillSlope))
Where X is the logarithm of concentration, Y is the response and Y starts at Bottom and goes to Top with a sigmoid shape.

IC50 [nM] | Structure (SMILES) | inhibition at 0.3 µM [%] | inhibition at 0.1 µM [%]
– | O=C(Cc1cccc(C(F)(F)F)c1F)Nc1c(Cl)ccc2c1CCN(C(=O)CCC1CCCCC1)C2 [Compound 3194] | 26 to 50 | –
385 | CC(C)(C)OC(=O)NC(Cc1ccccc1)C(=O)N1CCc2c(cccc2NC(=O)Cc2ccc(C(F)(F)F)c(F)c2)C1 (stereo not shown) [Compound 3045] | 26 to 50 | –
– | O=C(Cc1cccc(C(F)(F)F)c1F)Nc1c(Cl)ccc2c1CCN(C(=O)c1cc(F)c(F)cc1F)C2 [Compound 3143] | 0 to 25 | –
– | O=C(Cc1cccc(C(F)(F)F)c1F)Nc1c(Cl)ccc2c1CCN(C(=O)C1CC1c1ccccc1)C2 (stereo not shown) [Compound 3162] | 26 to 50 | –
– | O=C(Cc1ccc(C(F)(F)F)c(F)c1)Nc1c(Cl)ccc2c1CCN(C(=O)C1CCC1)C2 [Compound 3101] | 0 to 25 | –
– | O=C(Cc1ccc(C(F)(F)F)c(F)c1)Nc1c(Cl)ccc2c1CCN(C(=O)C1CC1)C2 [Compound 3102] | 0 to 25 | –
– | O=C(Cc1ccc(C(F)(F)F)cc1)Nc1c(Cl)ccc2c1CCN(S(=O)(=O)c1ccccc1F)C2 [Compound 3002] | – | 0 to 25
– | O=C(Cc1ccc(C(F)(F)F)cc1)Nc1c(Cl)ccc2c1CCN(S(=O)(=O)c1ccc(Cl)cc1F)C2 [Compound 3016] | – | 0 to 25
926 | COc1ccc2c(c1NC(=O)Cc1ccc(C(F)(F)F)c(F)c1)CCN(C(=O)C(C)(C)O)C2 [Compound 3481] | – | –
– | O=C(Cc1cccc(C(F)(F)F)c1F)Nc1c(Cl)ccc2c1CCN(C(=O)c1ccc(F)cc1)C2 [Compound 3154] | 0 to 25 | –
25.2 | CCS(=O)(=O)N1CCc2c(ccc(C)c2NC(=O)Cc2ccc(C(F)(F)F)c(F)c2)C1 [Compound 3433] | – | –
171 | COc1ccc2c(c1NC(=O)Cc1ccc(C(F)(F)F)c(F)c1)CCN(C(=O)C(C)(C)CO)C2 [Compound 3479, 2-(3-Fluoro-4-trifluoromethyl-phenyl)-N-[2-(3-hydroxy-2,2-dimethyl-propionyl)-6-methoxy-1,2,3,4-tetrahydro-isoquinolin-5-yl]-acetamide] | – | –
74.9 | Cc1ccc2c(c1NC(=O)Cc1ccc(C(F)(F)F)c(F)c1)CCN(C(=O)[C@H]1CCN1)C2 [Compound 3480] | – | –
32.2 | Cc1ccc2c(c1NC(=O)Cc1ccc(C(F)(F)F)c(F)c1)CCN(C(=O)C(C)(C)O)C2 [Compound 3470] | – | –
– | O=C(Cc1ccc(C(F)(F)F)c(F)c1)Nc1c(Cl)ccc2c1CCN(C(=O)c1cc(F)c(F)cc1F)C2 [Compound 3078] | 0 to 25 | –
– | CC(C)(C)c1ccc(C(=O)N2CCc3c(ccc(Cl)c3NC(=O)Cc3cccc(C(F)(F)F)c3F)C2)cc1 [Compound 3188] | ≥ 76 | –
– | O=C(Cc1cccc(C(F)(F)F)c1F)Nc1c(Cl)ccc2c1CCN(C(=O)COc1ccc(Cl)cc1)C2 [Compound 3167] | 26 to 50 | –
473 | C[C@H](NC(=O)OC(C)(C)C)C(=O)N1CCc2c(cccc2NC(=O)Cc2ccc(C(F)(F)F)c(F)c2)C1 [Compound 3048] | 0 to 25 | –
– | Cc1nn(-c2ccccc2)nc1C(=O)N1CCc2c(ccc(Cl)c2NC(=O)Cc2cccc(C(F)(F)F)c2F)C1 [Compound 3172] | 0 to 25 | –
– | CC(=O)N1CCc2c(ccc(Cl)c2NC(=O)Cc2ccc(C(F)(F)F)c(F)c2)C1 [Compound 3069] | 0 to 25 | –
47.2 | CCCCS(=O)(=O)N1CCc2c(ccc(Cl)c2NC(=O)Cc2cccc(C(F)(F)F)c2F)C1 [Compound 3327] | – | –
– | Cc1ccccc1C(=O)N1CCc2c(ccc(Cl)c2NC(=O)Cc2ccc(C(F)(F)F)c(F)c2)C1 [Compound 3112] | 0 to 25 | –
51.4 | CCS(=O)(=O)N1CCc2c(ccc(Cl)c2NC(=O)Cc2ccc(C(F)(F)F)c(F)c2)C1 [Compound 3272] | – | –
– | O=C(Cc1cccc(C(F)(F)F)c1F)Nc1c(Cl)ccc2c1CCN(C(=O)C1CCCCC1)C2 [Compound 3147] | 0 to 25 | –
– | O=C(Cc1ccc(C(F)(F)F)cc1)Nc1c(Cl)ccc2c1CCN(S(=O)(=O)c1ccc(Cl)c(C(F)(F)F)c1)C2 [Compound 3020] | – | 0 to 25
– | O=C(Cc1ccc(C(F)(F)F)c(F)c1)Nc1c(Cl)ccc2c1CCN(C(=O)c1ccccc1F)C2 [Compound 3114] | 0 to 25 | –

IC50 [nM] | Structure (SMILES) | inhibition at 0.3 µM [%] | inhibition at 0.1 µM [%]
– | CCCc1ccc(C(=O)N2CCc3c(ccc(Cl)c3NC(=O)Cc3cccc(C(F)(F)F)c3F)C2)cc1 [Compound 3146] | 26 to 50 | –
– | O=C(Cc1ccc(C(F)(F)F)c(F)c1)Nc1c(Cl)ccc2c1CCN(C(=O)c1ccc(Oc3ccccc3)nc1)C2 [Compound 3133] | 0 to 25 | –
967 | CN(C)CCC(=O)N1CCc2c(cccc2NC(=O)Cc2ccc(C(F)(F)F)c(F)c2)C1 [Compound 3035] | – | 0 to 25
325 | COc1ccc2c(c1NC(=O)Cc1ccc(C(F)(F)F)c(F)c1)CCN(C(=O)C1(O)CC1)C2 [Compound 3476, 2-(3-Fluoro-4-trifluoromethyl-phenyl)-N-[2-(1-hydroxy-cyclopropanecarbonyl)-6-methoxy-1,2,3,4-tetrahydro-isoquinolin-5-yl]-acetamide] | – | –
– | O=C(Cc1ccc(C(F)(F)F)c(F)c1)Nc1c(Cl)ccc2c1CCN(C(=O)c1cccnc1)C2 [Compound 3079] | 0 to 25 | –
– | O=C(Cc1cccc(C(F)(F)F)c1F)Nc1c(Cl)ccc2c1CCN(C(=O)c1ccc(Cl)c(Cl)c1)C2 [Compound 3148] | 0 to 25 | –
– | O=C(Cc1ccc(C(F)(F)F)c(F)c1)Nc1c(Cl)ccc2c1CCN(C(=O)c1ccc(Cl)cc1)C2 [Compound 3073] | 0 to 25 | –
60.2 | Cc1ccc2c(c1NC(=O)Cc1ccc(C(F)(F)F)c(F)c1)CCN(C(=O)C1CCCC1)C2 [Compound 3208] | – | –
– | O=C(Cc1ccc(C(F)(F)F)c(F)c1)Nc1c(Cl)ccc2c1CCN(C(=O)c1cccc(Cl)c1Cl)C2 [Compound 3115] | 0 to 25 | –
78.5 | Cc1ccc2c(c1NC(=O)Cc1ccc(C(F)(F)F)c(F)c1)CCN(S(=O)(=O)c1c(F)cccc1F)C2 [Compound 3425] | – | –
– | O=C(Cc1cccc(C(F)(F)F)c1F)Nc1c(Cl)ccc2c1CCN(C(=O)C1CC1)C2 [Compound 3165] | 0 to 25 | –
– | N#Cc1ccccc1S(=O)(=O)N1CCc2c(ccc(Cl)c2NC(=O)Cc2ccc(C(F)(F)F)cc2)C1 [Compound 3027] | – | 0 to 25
– | Cc1ccc(S(=O)(=O)N2CCc3c(ccc(Cl)c3NC(=O)Cc3ccc(C(F)(F)F)cc3)C2)c(C)c1 [Compound 3026] | – | 0 to 25
> 1000 | Cc1ncccc1C(=O)N1CCc2c(cccc2NC(=O)Cc2ccc(C(F)(F)F)c(F)c2)C1 [Compound 3044] | 0 to 25 | –
430 | O=C(Cc1ccc(C(F)(F)F)c(F)c1)Nc1cccc2c1CCN(C(=O)C1CCOCC1)C2 [Compound 3038] | 0 to 25 | –
– | O=C(Cc1ccc(C(F)(F)F)c(F)c1)Nc1c(Cl)ccc2c1CCN(C(=O)c1cccc(Cl)c1)C2 [Compound 3093] | 0 to 25 | –
– | O=C(Cc1ccc(C(F)(F)F)c(F)c1)Nc1c(Cl)ccc2c1CCN(C(=O)CCc1ccccc1)C2 [Compound 3089] | 0 to 25 | –
– | O=C(Cc1ccc(C(F)(F)F)c(F)c1)Nc1c(Cl)ccc2c1CCN(C(=O)C1CC1c1ccccc1)C2 (stereo not shown) [Compound 3099] | 0 to 25 | –
182 | O=C(Cc1ccc(C(F)(F)F)c(F)c1)Nc1cccc2c1CCN(C(=O)[C@@H]1CCCN1)C2 [Compound 3055] | 51 to 75 | –
– | O=C(Cc1ccc(C(F)(F)F)cc1)Nc1c(Cl)ccc2c1CCN(S(=O)(=O)c1ccc(C(F)(F)F)cc1Cl)C2 [Compound 3021] | – | 0 to 25
199 | CC(C)(C)OC(=O)N1CCC(OCC(=O)N2CCc3c(cccc3NC(=O)Cc3ccc(C(F)(F)F)c(F)c3)C2)CC1 [Compound 3047] | 51 to 75 | –
– | O=C(Cc1ccc(C(F)(F)F)c(F)c1)Nc1c(Cl)ccc2c1CCN(C(=O)COCc1ccccc1)C2 [Compound 3097] | 0 to 25 | –
280 | COc1ccc2c(c1NC(=O)Cc1ccc(C(F)(F)F)c(F)c1)CCN(C(=O)C1(O)CCCCC1)C2 [Compound 3477, 2-(3-Fluoro-4-trifluoromethyl-phenyl)-N-[2-(1-hydroxy-cyclohexanecarbonyl)-6-methoxy-1,2,3,4-tetrahydro-isoquinolin-5-yl]-acetamide] | – | –
– | CC(C)(C)C(=O)N1CCc2c(ccc(Cl)c2NC(=O)Cc2cccc(C(F)(F)F)c2F)C1 [Compound 3155] | 0 to 25 | –
– | O=C(Cc1ccc(C(F)(F)F)cc1)Nc1c(Cl)ccc2c1CCN(S(=O)(=O)c1c(F)cccc1F)C2 [Compound 3009] | – | 0 to 25
